Counter-ions that a name gives are not always drawn. Like-named read-outs stand apart in the source and are kept apart here.
Assays:
[1] = system: Plasmodium falciparum (P.f.); assay: in vitro effectiveness against Plasmodium falciparum; format: cell-based
Excerpt: (§1) These compounds can thus be employed as treatments of second-stage human African trypanosomiasis.

[2] = system: Trypanosoma brucei rhodesiense (T.b.r.); assay: in vitro effectiveness against Trypanosoma brucei rhodesiense; format: cell-based
Excerpt: as §1

[3] = system: Trypanosoma brucei rhodesiense (T.b.r.); assay: in vivo effectiveness against T.b.r. (cures); conditions: cures / animals treated
Excerpt: as §1

[4] = Trypanosoma brucei, RHODESIENSE

Row | SMILES | IC50 ([1]; Plasmodium falciparum) [nM] | melting point [°C] | IC50 [2, 4] [nM] | IC50 [1] [nM] | IC50 [2] [nM] | In vivo vs. T.b.r. cures [3]
1 | Cc1cc(C(=N)N)ccc1-c1ccc(-c2nc3ccc(C(=N)N)cc3[nH]2)o1 [Compound 45, 2-{2-[5(6)-Amidino]benzimidazolyl}-5-[(4-amidino-2-methyl)-phenyl]-furan trihydochloride] | – | – | – | 147 | 9.4 | 2/4
2 | c1cc(-c2nc3ccc(C4=NCCN4)cc3[nH]2)ccc1CCc1ccc(-c2nc3ccc(C4=NCCN4)cc3[nH]2)cc1 [Compound 24, 4,4′-Bis{2-[-6(2-imidazolino]benzimidazolyl}-1,2-diphenylethanetetrahydrochloride] | – | – | – | 19.6 | 393 | –
3 | CSc1cc(-c2ccc(-c3ccc(NC(=N)N)c(SC)c3)o2)ccc1NC(=N)N [Compound 42, 2,5-Bis(4-guanidino-3-thiomethoxyphenyl)furan Dihydrochloride] | 66 | – | 57 | – | – | –

Continued by falling IC50 ([1]; Plasmodium falciparum), values first:

Row | IC50 ([1]; Plasmodium falciparum) [nM] | melting point [°C] | IC50 [2, 4] [nM] | SMILES | IC50 [1] [nM] | IC50 [2] [nM] | In vivo vs. T.b.r. cures [3]
4 | 32 | – | 11 | N=C(N)c1ccc(-c2ccc(-c3nc4cc(C(=N)N)ccc4o3)o2)cc1 [Compound 41] | – | – | 4/4
5 | 25.5 | 158 to 159 | 21.7 | N#Cc1ccc(-c2cccc(C=O)n2)cc1 [Compound 6, 6-(4-Cyanophenyl)pyridine-2-carbaldehyde] | – | – | –
6 | 14.7 | – | 40 | CCOc1cc(-c2ccc(-c3ccc(NC(=N)N)c(OCC)c3)o2)ccc1NC(=N)N [Compound 44, 2,5-Bis(3-ethoxy-4-guanidinophenyl)furan dihydrochloride] | – | – | –
7 | 9.7 | – | 24 | CC(=O)O.N=C(N)c1ccc(-c2cccc(-c3nc4ccc(C(=N)N)cc4[nH]3)n2)cc1 [Compound 36, 2-(5-Amidinobenzimidazol-2-yl)-6-(4-amidinophenyl)pyridine acetate salt] | – | – | 1/4
8 | 5.1 | – | 32 | N=C(Nc1ccc(-c2ccc(-c3ccc(NC(=N)c4ccccn4)cc3O)o2)c(O)c1)c1ccccn1 [Compound 43, 2,5-Bis[2-hydroxy-4-(2-pyridylimino)amino]furan Dihydrochloride] | – | – | –

From patent publication US20070088067A1, “Novel amidine compounds for treating microbial infections” (priority 2003, published 2007)
